Assay results: patent US20050084468A1, “Antimicrobial cleaning composition” (Colgate-Palmolive Company, priority 2003, published 2005)

Key:
Assay type in all cases: cell-based
[1] = tested on: wild germs from hand's volunteers (mainly Staphylococcus epidermitis); test: Lasting antibacterial protection, PHMB-Mucin in surfactant solutions; conditions: surfactant solution alone (NO PHMB-Mucin), 2.5% AI in water
Description: (§1) Ceramic tiles are treated with 200 μl of the solutions to test; untreated tiles are used as reference. After overnight drying of the treatment, tiles are rinsed with 2×10 ml deionized water and let dry for 1 hour. Tiles are then inoculated in the horizontal position for 5 hours with 200 μl of a suspension of wild germs from hand's volunteers (mainly Staphylococcus epidermitis). After rinsing of the surface with 2×10 ml sterile tap water to remove the germs source, the contamination of the surface is determined by direct imprint with Tryptic Soy Agar plates (a nutritive gelified support). Colony forming units (=cfu=microorganisms) are counted after 48 hours incubation at RT.
PHMB-Mucin in Surfactant Solutions
Test methodology is described under example II. We considered nonionic surfactants (Neodols), anionics (SLS, PS), and amphoteric (CAPB) at 2.5% Al in water. The mixture is Neodol 91-8 1.25%, Neodol 91-5 0.25%, CAPB 0.45%, PS 0.5%.

[2] = tested on: wild germs from hand's volunteers (mainly Staphylococcus epidermitis); test: Lasting antibacterial protection, stronger rinsing with water
Description: as §1
Stronger Rinsing with Water:
Methodology is the same as described under example II but rinsing is operated either with 2×10 ml or 5×10 ml water or with a tap water shower head during 30 sec.

[3] = tested on: wild germs from hand's volunteers (mainly Staphylococcus epidermitis); test: Lasting antibacterial protection of the surface (treated ceramic tiles, imprint cfu count); conditions: tiles rinsed 2×10 ml deionized water; inoculated 5 hours; counted after 48 hours at RT
Description: as §1, with “Measure” for “Ceramic tiles are treated with 200 μl”, “Lasting Antibacterial Protection of the Surface […]” for “solutions to test; untreated tiles are used as reference.”, “[…]).” for “epidermitis).”

[4] = rinsing tap water shower head 30 sec.

Compound	cfu/tile - average on 3 replicates ([1]; series of PHMB 0.06%-Mucin 0.03%)	cfu/tile - average on 3 replicates ([1]; series of PHMB 0.09%-Mucin 0.05%)	cfu/ceramic tile average on 3 replicates ([2]; rinsing 2 × 10 ml water)	cfu/ceramic tile average on 3 replicates ([2]; rinsing 5 × 10 ml water)	cfu/ceramic tile average on 3 replicates [2, 4]	Cfu/ceramic tile Average on 3 replicates [3]
CCCCCCCCCCCCOS(=O)(=O)[O-].[Na+] [SLS, sodium lauryl sulfate]	277 ± 34 cfu/tile	77 ± 25 cfu/tile	–	–	–	–
mucin [Mucin 0.1%]	–	–	50 ± 19 cfu/ceramic tile	129 ± 36 cfu/ceramic tile	149 ± 5 cfu/ceramic tile	82 ± 15 Cfu/ceramic tile
mucin [Mucin 0.03%]	–	–	37 ± 3 cfu/ceramic tile	118 ± 43 cfu/ceramic tile	145 ± 8 cfu/ceramic tile	110 ± 18 Cfu/ceramic tile
mucin [Mucin 0.05%]	–	–	26 ± 7 cfu/ceramic tile	98 ± 23 cfu/ceramic tile	72 ± 17 cfu/ceramic tile	68 ± 12 Cfu/ceramic tile
